Assays:
Rattus norvegicus [1] = assay: Acid output from the stomach (control value = 120.3+/-11.1) in pylorus ligated rats (5 mg/kg po of the Compound was administered 1 hr before the pylorus ligation); assay type: functional
Rattus norvegicus [2] = assay: Percent inhibition of gastric lesions (length = 92.8+/-8) induced by ethanol was measured, after administration of 2.5 mg/kg po in l-NAME-pretreated rats; assay type: functional; settings: Stomach
Rattus norvegicus [3] = assay: Reduction in length (control value = 206.7+/-6.3) of gastric lesions induced by endomethacin was measured, after administration of 2.5 mg/kg po NEM-pretreated in rats; assay type: functional, Stomach
Rattus norvegicus [4] = assay: Percent inhibition of gastric lesions induced by ethanol was measured, after administration of 1.25 mg/kg po in rats; assay type: functional; settings: Stomach
Rattus norvegicus [5] = assay: Percent inhibition of gastric lesions (length = 110+/-8.4) induced by ethanol was measured, after administration of 2.5 mg/kg po in NEM-pretreated rats; assay type: functional; settings: Stomach
Rattus norvegicus [6] = assay: Percent inhibition of gastric lesions induced by ethanol was measured, after administration of 2.5 mg/kg po in rats; assay type: functional; settings: Stomach
Rattus norvegicus [7] = assay: Percent inhibition of gastric lesions (length = 50+/-9.9) induced by ethanol was measured, after administration of 5 mg/kg po in l-NAME-pretreated rats; assay type: functional; settings: Stomach
Rattus norvegicus [8] = assay: Percent inhibition of gastric lesions (length = 126.6+/-16.9) induced by ethanol was measured, after administration of 5 mg/kg po in endomethacin pretreated r rats; assay type: functional; settings: Stomach
Rattus norvegicus [9] = assay: Reduction in length (control value = 206.7+/-6.3) of gastric lesions induced by endomethacin was measured, after administration of 5 mg/kg po NEM-pretreated in rats; assay type: functional, Stomach
Rattus norvegicus [10] = assay: Reduction in length (control value = 152.9+/-9.7) of gastric lesions induced by ethanol was measured, after administration of 2.5 mg/kg po in Indomethacin-pretreated rats; assay type: functional, Stomach
Rattus norvegicus [11] = assay: Reduction in length (control value = 70.4+/-2.3) of gastric lesions induced by endomethacin was measured, after administration of 2.5 mg/kg po in rats; assay type: functional, Stomach
Rattus norvegicus [12] = assay: Reduction in length (control value = 70.4+/-2.3) of gastric lesions induced by endomethacin was measured, after administration of 1.25 mg/kg po in rats; assay type: functional, Stomach
Rattus norvegicus [13] = assay: pH of the gastric juice (control value = 1.39+/-0.02) of stomach content of pylorus ligated rats was measured (2.5 mg/kg po of the Compound was administered 1 hr before the pylorus ligation); assay type: ADME, organism-based; settings: in vivo
Rattus norvegicus [14] = assay: Acid output from the stomach (control value = 120.3+/-11.1) in pylorus ligated rats (2.5 mg/kg po of the Compound was administered 1 hr before the pylorus ligation); assay type: functional
Rattus norvegicus [15] = assay: Reduction in length (control value = 190.1+/-9.3) of gastric lesions induced by endomethacin was measured, after administration of 2.5 mg/kg po L-NAME-pretreated in rats; assay type: functional, Stomach
Rattus norvegicus [16] = assay: Percent inhibition of gastric lesions induced by ethanol was measured, after administration of 5 mg/kg po in rats; assay type: functional; settings: Stomach
Rattus norvegicus [17] = assay: Percent inhibition of gastric lesions induced by endomethacin was measured, after administration of 1.25 mg/kg po in rats; assay type: functional; settings: Stomach
Rattus norvegicus [18] = assay: Percent inhibition of gastric lesions induced by endomethacin was measured, after administration of 5 mg/kg po in rats; assay type: functional; settings: Stomach
Rattus norvegicus [19] = assay: Volume of the gastric juice (control value = 4.7+/-.3) of stomach content of pylorus ligated rats was measured(2.5 mg/kg po of the Compound was administered 1 hr before the pylorus ligation); assay type: functional
Rattus norvegicus [20] = assay: Reduction in length (control value = 141+/-14.3) of gastric lesions induced by ethanol was measured, after administration of 2.5 mg/kg po in rats; assay type: functional, Stomach
Rattus norvegicus [21] = assay: pH of the gastric juice (control value = 1.39+/-0.02) of stomach content of pylorus ligated rats was measured (5 mg/kg po of the Compound was administered 1 hr before the pylorus ligation); assay type: ADME, organism-based; settings: in vivo
Rattus norvegicus [22] = assay: Percent inhibition of gastric lesions (length = 34.3+/-5.5) induced by ethanol was measured, after administration of 2.5 mg/kg po in rats; assay type: functional; settings: Stomach
Rattus norvegicus [23] = assay: Reduction in length (control value = 190.1+/-9.3) of gastric lesions induced by endomethacin was measured, after administration of 5 mg/kg po L-NAME-pretreated in rats; assay type: functional, Stomach
Rattus norvegicus [24] = assay: Reduction in length (control value = 141+/-14.3) of gastric lesions induced by ethanol was measured, after administration of 1.25 mg/kg po in rats; assay type: functional, Stomach
Rattus norvegicus [25] = assay: Volume of the gastric juice (control value = 4.7+/-.3) of stomach content of pylorus ligated rats was measured (5 mg/kg po of the Compound was administered 1 hr before the pylorus ligation); assay type: functional
Rattus norvegicus [26] = assay: Reduction in length (control value = 152.9+/-9.7) of gastric lesions induced by ethanol was measured, after administration of 5 mg/kg po in Indomethacin-pretreated rats; assay type: functional, Stomach
Rattus norvegicus [27] = assay: Reduction in length (control value = 141+/-14.3) of gastric lesions induced by ethanol was measured, after administration of 5 mg/kg po in rats; assay type: functional, Stomach
Rattus norvegicus [28] = assay: Percent inhibition of gastric lesions induced by endomethacin was measured, after administration of 2.5 mg/kg po in rats; assay type: functional; settings: Stomach
Rattus norvegicus [29] = assay: Percent inhibition of gastric lesions (length = 139.3+/-11.2) induced by ethanol was measured, after administration of 2.5 mg/kg po in endomethacin pretreated rats; assay type: functional; settings: Stomach
Rattus norvegicus [30] = assay: Percent inhibition of gastric lesions induced by ethanol was measured, after administration of 5 mg/kg po in l-NAME-pretreated rats; assay type: functional; settings: Stomach
Rattus norvegicus [31] = assay: Reduction in length (control value = 70.4+/-2.3) of gastric lesions induced by endomethacin was measured, after administration of 5 mg/kg po in rats; assay type: functional, Stomach
Rattus norvegicus [32] = assay: Percent inhibition of gastric lesions (length = 24.9 +/-3.6) induced by ethanol was measured, after administration of 5 mg/kg po in rats; assay type: functional; settings: Stomach

CC1CC[C@@]2(OC1)OC1C[C@H]3[C@@H]4CC=C5C[C@@H](O[C@@H]6O[C@H](CO)[C@@H](O[C@@H]7O[C@@H](CO)[C@H](O)[C@H]7O)[C@H](O)[C@H]6O[C@@H]6O[C@@H](C)[C@H](O)[C@@H](O)[C@H]6O)CC[C@]5(C)[C@H]4CC[C@]3(C)[C@@]1(O)[C@@H]2C (some centres not stated)
Acid output (Rattus norvegicus [1]): 71.8 u equiv hr-1
inhibition in vivo at 2.5 mg/kg (Rattus norvegicus [2]): 51.2%
Length (Rattus norvegicus [3]): 110 mm
inhibition in vivo at 1.25 mg/kg (Rattus norvegicus [4]): 48.5%
inhibition in vivo at 2.5 mg/kg (Rattus norvegicus [5]): 46.8%
inhibition in vivo at 2.5 mg/kg (Rattus norvegicus [6]): 82.9%
inhibition in vivo at 5 mg/kg (Rattus norvegicus [7]): 73.7%
inhibition in vivo at 5 mg/kg (Rattus norvegicus [8]): 17.2%
Length (Rattus norvegicus [9]): 63 mm
Length (Rattus norvegicus [10]): 139 mm
Length (Rattus norvegicus [11]): 30.3 mm
Length (Rattus norvegicus [12]): 34.9 mm
pH (Rattus norvegicus [13]): 1.41
Acid output (Rattus norvegicus [14]): 98.5 u equiv hr-1
Length (Rattus norvegicus [15]): 92.8 mm
inhibition in vivo at 5 mg/kg (Rattus norvegicus [16]): 93.7%
inhibition in vivo at 1.25 mg/kg (Rattus norvegicus [17]): 50.4%
inhibition in vivo at 5 mg/kg (Rattus norvegicus [18]): 70.2%
Volume (Rattus norvegicus [19]): 4.1 ml 4hr-1
Length (Rattus norvegicus [20]): 24.1 mm
pH (Rattus norvegicus [21]): 1.41
inhibition in vivo at 2.5 mg/kg (Rattus norvegicus [22]): 74.8%
Length (Rattus norvegicus [23]): 50 mm
Length (Rattus norvegicus [24]): 72.6 mm
Volume (Rattus norvegicus [25]): 3.3 ml 4hr-1
Length (Rattus norvegicus [26]): 127 mm
Length (Rattus norvegicus [27]): 8.9 mm
inhibition in vivo at 2.5 mg/kg (Rattus norvegicus [28]): 57%
inhibition in vivo at 2.5 mg/kg (Rattus norvegicus [29]): 8.9%
inhibition in vivo at 5 mg/kg (Rattus norvegicus [30]): 69.5%
Length (Rattus norvegicus [31]): 21 mm
inhibition in vivo at 5 mg/kg (Rattus norvegicus [32]): 81.7%
